Test results as given in US11713309B2, “Solid forms of Cerdulatinib” (Alexion Pharmaceuticals, Inc., priority 2018, dated 2023).
Structures can show the parent of a compound that is named as a salt. Where two headings read alike, the source gives them in different places.

What was measured:
Type in all cases: physicochemical
[1] = Approximate kinetic solubility in pharmaceutical co-solvents; details: aqueous with cosolvent or surfactant or cyclodextrin, thermodynamic from solid, no-pH adjustment
Description: A summary of the approximate kinetic solubility of Compound I HCl Form I in organic solvents, simulated biological fluids, and common pharmaceutical co-solvents is provided in Tables 8-10, respectively.

[2] = Slurry maturations in various solvents (form reproducibility/stability); details: acetonitrile, EtOAc, ethanol, IPA; cycling about 25 to about 50° C., about 4 days
Experimental: A series of slurry maturations in various solvents was performed to further analyze the form reproducibility/stability of the esylate, mesylate, HCl, and sulfate salts/co-crystals of Compound I. The solvents chosen were acetonitrile, EtOAc, ethanol, and IPA. The input materials were the salts/co-crystals of Compound I formed via the second scale up process. About 20 mg of each sample was charged to reflux tubes and heated with temperature cycling between about 25 and about 50° C. for about 4 days. The resulting materials were isolated by filtration and dried in vacuo at about 40° C. The results of the slurry maturations for the resulting HCl and mesylate salts/co-crystals are presented in subsections (a)-(d) below. The data for the resulting esylate and sulfate salts/co-crystals of Compound have been omitted due to notable form variation.

[3] = Overall solid form comparison (summary statements)
Description: The hydration behavior of Compound I HCl Form I is reversible, such that rehydration of Compound I HCl Form I returns the single, crystalline form, allowing Compound I HCl Form I be stored at ambient conditions without desiccant.

[4] = Kinetic solubility in FaSSIF; details: listed as HC1 salt Form I
Experimental: (§1) Kinetic solubility testing was conducted as follows: About 40-55 mg material was weighed into a 5-mL EP pipe. 4 mL of water/bio-relevant media (SGF, FaSSIF, or FeSSIF) was added into the corresponding sample pipe (drug loading: ˜10 mg/mL calculated as freebase). The pipes were capped tightly and the material was verified to be in contact with the media. The sample vials were placed on a roller and start rolling at 37° C. (rate: 25 r/min). Samples were taken at 1, 2, 4, 24 h. For each time point, 1.0 mL of suspension was transferred into a 2-mL centrifuge tube and the samples were centrifuged. The supernatant was filtered via 0.45 μm PTFE membrane and solubility and pH were measured. An XRPD test on residual solids was conducted.

[5] = Kinetic solubility in FeSSIF
Experimental: as §1

[6] = XRPD form evaluation of materials recovered after solubility analysis; details: aqueous solubility analysis, second scale up material
Experimental: (§2) The solubility of the salts/co-crystals of Compound I prepared from the second scale up process was analyzed. The materials recovered after the solubility analysis were evaluated by XRPD to observe any form changes.

[7] = Thermodynamic aqueous solubility by HPLC; details: HPLC grade water, 25° C., 24 hours; second scale up material; listed as Comp. I HCl (formed using aqueous HCl) Form I
Experimental: The suspension was equilibrated at 25° C. for 24 hours. The suspension was then passed through a filter into an HPLC vial. The filtrate was then diluted by an appropriate factor. Quantification was executed by HPLC with reference to a standard solution of approximately 1 mg·mL^−1 in acetonitrile:water (1:1). Different volumes of the standard, diluted and undiluted sample solutions were injected. […] HPLC method parameters are described in Table 1 and Table 2.
Analysis was performed on an Agilent 1100 series liquid chromatography, equipped with a UV detector (DAD or VWD) @ 254 nm and using Chemstation Rev.B.01.03 software for data processing.
as §2

[8] = 2% Captisol in aqueous solution
[9] = 5% Captisol in aqueous solution
[10] = 5% Pharmasolve in aqueous solution
[11] = 5% Poloxamer F68 in aqueous solution
[12] = 10% Captisol in aqueous solution
[13] = 10% HP-β-CD in aqueous solution
[14] = 10% Labrasol in aqueous solution
[15] = 10% Pharmasolve in aqueous solution
[16] = 10% Poloxamer F68 in aqueous solution
[17] = 20% HP-β-CD in aqueous solution
[18] = 20% Labrasol in aqueous solution
[19] = 30% HP-β-CD in aqueous solution
[20] = 35% Labrasol in aqueous solution
[21] = 40% Captisol in aqueous solution
[22] = 40% HP-β-CD in aqueous solution
[23] = 50% Labrasol in aqueous solution

solubility kinetic at 2 h [1, 8]: 2040 µg/mL
solubility kinetic at 24 h [1, 8]: 2510 µg/mL
solubility kinetic at 7 days [1, 8]: 2540 µg/mL
solubility kinetic at 2 h ([1]; 3% HP-β-CD in aqueous solution): 990 µg/mL
solubility kinetic at 24 h ([1]; 3% HP-β-CD in aqueous solution): 1120 µg/mL
solubility kinetic at 7 days ([1]; 3% HP-β-CD in aqueous solution): 1020 µg/mL
solubility kinetic at 2 h ([1]; 3% TPGS in aqueous solution): 1060 µg/mL
solubility kinetic at 24 h ([1]; 3% TPGS in aqueous solution): 640 µg/mL
solubility kinetic at 7 days ([1]; 3% TPGS in aqueous solution): 540 µg/mL
solubility kinetic at 2 h [1, 9]: 3010 µg/mL
solubility kinetic at 24 h [1, 9]: 3610 µg/mL
solubility kinetic at 7 days [1, 9]: 3750 µg/mL
solubility kinetic at 2 h ([1]; 5% HP-β-CD in aqueous solution): 1450 µg/mL
solubility kinetic at 24 h ([1]; 5% HP-β-CD in aqueous solution): 1390 µg/mL
solubility kinetic at 7 days ([1]; 5% HP-β-CD in aqueous solution): 1590 µg/mL
solubility kinetic at 2 h [1, 10]: 430 µg/mL
solubility kinetic at 24 h [1, 10]: 690 µg/mL
solubility kinetic at 2 h [1, 11]: 230 µg/mL
solubility kinetic at 24 h [1, 11]: 180 µg/mL
solubility kinetic at 2 h ([1]; 5% TPGS in aqueous solution): 1610 µg/mL
solubility kinetic at 24 h ([1]; 5% TPGS in aqueous solution): 1530 µg/mL
solubility kinetic at 7 days ([1]; 5% TPGS in aqueous solution): 1320 µg/mL
solubility kinetic at 2 h [1, 12]: 3040 µg/mL
solubility kinetic at 24 h [1, 12]: 3410 µg/mL
solubility kinetic at 7 days [1, 12]: 3670 µg/mL
solubility kinetic at 2 h [1, 13]: 1880 µg/mL
solubility kinetic at 24 h [1, 13]: 2030 µg/mL
solubility kinetic at 7 days [1, 13]: 1930 µg/mL
solubility kinetic at 2 h [1, 14]: 1150 µg/mL
solubility kinetic at 24 h [1, 14]: 820 µg/mL
solubility kinetic at 7 days [1, 14]: 700 µg/mL
solubility kinetic at 2 h [1, 15]: 700 µg/mL
solubility kinetic at 24 h [1, 15]: 570 µg/mL
solubility kinetic at 2 h [1, 16]: 260 µg/mL
solubility kinetic at 24 h [1, 16]: 210 µg/mL
solubility kinetic at 2 h ([1]; 10% TPGS in aqueous solution): 1800 µg/mL
solubility kinetic at 24 h ([1]; 10% TPGS in aqueous solution): 1930 µg/mL
solubility kinetic at 7 days ([1]; 10% TPGS in aqueous solution): 1720 µg/mL
solubility kinetic at 2 h [1, 17]: 2630 µg/mL
solubility kinetic at 24 h [1, 17]: 2810 µg/mL
solubility kinetic at 7 days [1, 17]: 2650 µg/mL
solubility kinetic at 2 h [1, 18]: 1840 µg/mL
solubility kinetic at 24 h [1, 18]: 1850 µg/mL
solubility kinetic at 7 days [1, 18]: 1710 µg/mL
solubility kinetic at 2 h ([1]; 20% PEG in aqueous solution): 270 µg/mL
solubility kinetic at 24 h ([1]; 20% PEG in aqueous solution): 370 µg/mL
solubility kinetic at 2 h ([1]; 20% TPGS in aqueous solution): 2450 µg/mL
solubility kinetic at 24 h ([1]; 20% TPGS in aqueous solution): 2420 µg/mL
solubility kinetic at 7 days ([1]; 20% TPGS in aqueous solution): 2620 µg/mL
solubility kinetic at 2 h [1, 19]: 2980 µg/mL
solubility kinetic at 24 h [1, 19]: 2940 µg/mL
solubility kinetic at 2 h ([1]; 30% PEG in aqueous solution): 420 µg/mL
solubility kinetic at 24 h ([1]; 30% PEG in aqueous solution): 450 µg/mL
solubility kinetic at 7 days ([1]; 30% PEG in aqueous solution): 410 µg/mL
solubility kinetic at 2 h [1, 20]: 1900 µg/mL
solubility kinetic at 24 h [1, 20]: 2010 µg/mL
solubility kinetic at 7 days [1, 20]: 1800 µg/mL
solubility kinetic at 2 h [1, 21]: 4250 µg/mL
solubility kinetic at 24 h [1, 21]: 4400 µg/mL
solubility kinetic at 7 days [1, 21]: 4330 µg/mL
solubility kinetic at 2 h [1, 22]: 3860 µg/mL
solubility kinetic at 24 h [1, 22]: 3840 µg/mL
solubility kinetic at 7 days [1, 22]: 4120 µg/mL
solubility kinetic at 2 h [1, 23]: 2050 µg/mL
solubility kinetic at 24 h [1, 23]: 2650 µg/mL
solubility kinetic at 7 days [1, 23]: 2200 µg/mL
solubility kinetic at 2 h ([1]; 50% PEG in aqueous solution): 2170 µg/mL
solubility kinetic at 24 h ([1]; 50% PEG in aqueous solution): 870 µg/mL
solubility kinetic at 7 days ([1]; 50% PEG in aqueous solution): 690 µg/mL
Form after slurry maturation (XRPD) [2]: does not experience any form change
Stability relative to the other solid forms / salts of Compound I ([3]; listed as Compound I mono-HCl Form I): superior thermodynamically stability
Stability of the solid form ([3]; room temperature, ambient conditions): stable
Solubility (mg/mL) 1 h ([4]; FaSSIF, 37° C., 1 h, drug loading ~10 mg/mL as freebase): 0.012 mg/mL
Solubility (mg/mL) 2 h ([4]; FaSSIF, 37° C., 2 h): 0.013 mg/mL
Solubility (mg/mL) 4 h ([4]; FaSSIF, 37° C., 4 h): 0.013 mg/mL
Solubility (mg/mL) 24 h ([4]; FaSSIF, 37° C., 24 h): 0.011 mg/mL
pH 1 h ([4]; supernatant, FaSSIF (native pH 6.5), 1 h): 5.4
pH 2 h ([4]; supernatant, FaSSIF (native pH 6.5), 2 h): 5.1
pH 4 h ([4]; supernatant, FaSSIF (native pH 6.5), 4 h): 5.2
pH 24 h ([4]; supernatant, FaSSIF (native pH 6.5), 24 h): 4.6
Kinetic solubility in FeSSIF (qualitative) ([5]; 37° C.): favorable kinetic solubility
Solubility (mg/mL) 1 h ([5]; 37° C., 1 h, drug loading ~10 mg/mL as freebase, listed as HC1 salt Form I): 0.049 mg/mL
Solubility (mg/mL) 2 h ([5]; 37° C., 2 h, listed as HC1 salt Form I): 0.031 mg/mL
Solubility (mg/mL) 4 h ([5]; 37° C., 4 h, listed as HC1 salt Form I): 0.010 mg/mL
Solubility (mg/mL) 24 h ([5]; 37° C., 24 h, listed as HC1 salt Form I): 0.0072 mg/mL
Final Form 2 h, 4 h, 24 h ([5]; XRPD of residual solids, 2 h, 4 h, 24 h): Freebase Form II
pH 1 h ([5]; supernatant, 1 h, listed as HC1 salt Form I): 4.9
pH 2 h ([5]; supernatant, 2 h, listed as HC1 salt Form I): 4.7
pH 4 h ([5]; supernatant, 4 h, listed as HC1 salt Form I): 4.7
pH 24 h ([5]; supernatant, 24 h, listed as HC1 salt Form I): 4.5
Form change on solubility analysis (XRPD post vs pre) [6]: no form change
solubility [7]: 350 µg/mL
Compound: CCS(=O)(=O)N1CCN(c2ccc(Nc3ncc(C(N)=O)c(NC4CC4)n3)cc2)CC1 [Compound I HCl Form I, 4-(cyclopropylamino)-2-(4-(4-(ethylsulfonyl)piperazin-1-yl)phenylamino)pyrimidine-5-carboxamide]
Stability relative to the other solid forms / salts of Compound I [3]: most physico-chemically stable solid form
